Measurements taken from patent US20080009418A1, “Selective Inhibitors” (Alchemia LTD., priority 2004, published 2008).

How the values were obtained:
Human δ-opioid (DOP) = molecular target: T1, Human δ-opioid (DOP) (Homo sapiens, UniProt P41143); assay: Radioligand binding, human δ-opioid (DOP) membranes, FlashPlate, [3H]-Bremazocine; settings: compound at 10 μM, [3H]-Bremazocine
T1 construct: purchased Perkin Elmer Biosignal
In short: (§1)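 Cloned human receptor membranes were coated onto FlashPlate wells and incubated with radioligand and compound (added from a 0.5 mM DMSO daughter plate) for 1 hour at room temperature in the dark. Scintillation counting gave percent inhibition, with DMSO defining total and reference ligand defining non-specific binding.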

Human κ-Opioid (KOP) = molecular target: T2, Human κ-Opioid (KOP) (Homo sapiens, UniProt P41145); assay: Radioligand binding, human κ-opioid (KOP) membranes, filtration, [3H]-Diprenorphine; settings: compound at 10 μM, [3H]-Diprenorphine
T2 construct: purchased Perkin Elmer Biosignal
In short: (§2)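 Filtration binding on cloned human receptor membranes (1 Unit/well), [125I]-Substance P for NK1 and [3H]-Diprenorphine for KOP, 1 h at room temperature. Filters PEI-presoaked, washed with cold 50 mM Tris-HCl pH 7.4, counted by scintillation; percent inhibition calculated, reference ligand defining non-specific binding.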

Human Melanocortin (MC3) = molecular target: T3, Human Melanocortin (MC3) (Homo sapiens, UniProt P41968); assay: Radioligand binding, human melanocortin MC3 membranes, FlashPlate, [125I]-NDP-αMSH; settings: compound at 10 μM, [125I]-NDP-αMSH
T3 construct: purchased Perkin Elmer Biosignal
In short: as §1

Human Melanocortin (MC4) = molecular target: T4, Human Melanocortin (MC4) (Homo sapiens, UniProt P32245); assay: Radioligand binding, human melanocortin MC4 membranes, FlashPlate, [125I]-NDP-αMSH; settings: compound at 10 μM, [125I]-NDP-αMSH
T4 construct: purchased Perkin Elmer Biosignal
In short: as §1

Human melanocortin (MC5) = molecular target: T5, Human melanocortin (MC5) (Homo sapiens, UniProt P33032); assay: Radioligand binding, human melanocortin MC5 membranes, FlashPlate, [125I]-NDP-αMSH; settings: compound at 10 μM, [125I]-NDP-αMSH
T5 construct: purchased Perkin Elmer Biosignal
In short: as §1

[1] = molecular target: T6, Human melanin-concentrating hormone (MCH1) (Homo sapiens, UniProt Q99705); assay: Radioligand binding, human melanin-concentrating hormone MCH1 membranes, FlashPlate, [125I]-S36057; settings: compound at 10 μM
T6 construct: purchased Perkin Elmer Biosignal
In short: as §1

Human μ-opioid (MOP) = molecular target: T7, Human μ-opioid (MOP) (Homo sapiens, UniProt P35372); assay: Radioligand binding, human μ-opioid (MOP) membranes, FlashPlate, [3H]-Naloxone; settings: compound at 10 μM, [3H]-Naloxone
T7 construct: purchased Perkin Elmer Biosignal
In short: as §1

Human neurokinin (NK1) = molecular target: T8, Human neurokinin (NK1) (Homo sapiens, UniProt P25103); assay: Radioligand binding, human neurokinin NK1 membranes, filtration, [125I]-Substance P; settings: compound at 10 μM, [125I]-Substance P
T8 construct: purchased Perkin Elmer Biosignal
In short: as §2

[2] = molecular target: T9, Human neuropeptide Y (NPY-Y1) (Homo sapiens, UniProt P25929); assay: Radioligand binding, human neuropeptide Y NPY-Y1 membranes, FlashPlate, [125I]-PYY; settings: compound at 10 μM, [125I]-PYY
T9 construct: purchased Perkin Elmer Biosignal
T9 sequence (P25929 1-384): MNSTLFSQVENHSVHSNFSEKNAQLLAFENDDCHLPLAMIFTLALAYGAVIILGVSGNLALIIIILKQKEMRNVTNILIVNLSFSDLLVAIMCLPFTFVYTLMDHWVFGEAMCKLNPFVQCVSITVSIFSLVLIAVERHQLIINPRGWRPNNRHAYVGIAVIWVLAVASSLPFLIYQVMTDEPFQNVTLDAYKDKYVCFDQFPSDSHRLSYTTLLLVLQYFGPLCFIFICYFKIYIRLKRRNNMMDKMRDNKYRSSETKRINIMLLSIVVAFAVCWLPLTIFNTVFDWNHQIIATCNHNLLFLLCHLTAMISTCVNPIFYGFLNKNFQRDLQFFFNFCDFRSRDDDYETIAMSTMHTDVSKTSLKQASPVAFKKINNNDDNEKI
In short: as §1

Human opioid (ORL1) = molecular target: T10, Human opioid (ORL1) (Homo sapiens, UniProt P41146); assay: Radioligand binding, human opioid ORL1 membranes, FlashPlate, [125I]-Nociceptin; settings: compound at 10 μM, [125I]-Nociceptin
T10 construct: purchased Perkin Elmer Biosignal
In short: as §1

Mouse urotensin (mUR2) = molecular target: T11, Mouse urotensin (mUR2) (Mus musculus, UniProt Q8VIH9); assay: Radioligand binding, mouse urotensin mUR2 membranes, FlashPlate, [125I]-Urotensin II; settings: compound at 10 μM, [125I]-Urotensin II
T11 construct: purchased Perkin Elmer Biosignal
T11 sequence (Q8VIH9 1-385): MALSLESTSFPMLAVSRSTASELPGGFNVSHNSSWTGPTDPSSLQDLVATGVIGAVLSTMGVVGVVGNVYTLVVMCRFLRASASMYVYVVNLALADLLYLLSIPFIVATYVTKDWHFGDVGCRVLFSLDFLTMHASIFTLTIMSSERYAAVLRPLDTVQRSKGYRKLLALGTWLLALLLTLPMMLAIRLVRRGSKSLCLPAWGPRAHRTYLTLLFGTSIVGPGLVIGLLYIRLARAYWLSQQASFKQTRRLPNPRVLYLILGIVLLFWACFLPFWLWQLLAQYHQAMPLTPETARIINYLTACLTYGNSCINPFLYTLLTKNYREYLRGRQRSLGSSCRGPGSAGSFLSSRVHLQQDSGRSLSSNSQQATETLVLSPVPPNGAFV
In short: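 Cloned mouse urotensin (mUR2) receptor membranes from Perkin Elmer Biosignal were immobilized in FlashPlate microplates using a proprietary coating. Each well got 19.5 μl buffer, then 0.5 μl of DMSO, reference ligand, or compound. Adding 5 μl of [125I]-Urotensin II, diluted to 5× final concentration in binding buffer, started binding. Plates were sealed with TopSeal-A and incubated 1 hour at room temperature in the dark. Wells were counted for 30 seconds each on a TopCount after a 60-second delay, and percentage inhibition was calculated.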

T5 sequence (P33032 whole entry): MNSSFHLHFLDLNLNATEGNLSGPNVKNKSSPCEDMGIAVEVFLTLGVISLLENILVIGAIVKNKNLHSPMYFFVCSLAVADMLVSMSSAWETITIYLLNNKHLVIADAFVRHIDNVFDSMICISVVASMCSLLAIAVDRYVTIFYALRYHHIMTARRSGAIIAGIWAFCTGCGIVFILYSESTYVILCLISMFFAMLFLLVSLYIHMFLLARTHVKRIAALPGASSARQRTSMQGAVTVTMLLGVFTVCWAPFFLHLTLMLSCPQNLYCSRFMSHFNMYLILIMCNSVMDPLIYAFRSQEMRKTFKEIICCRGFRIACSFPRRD
T10 sequence (P41146 whole entry): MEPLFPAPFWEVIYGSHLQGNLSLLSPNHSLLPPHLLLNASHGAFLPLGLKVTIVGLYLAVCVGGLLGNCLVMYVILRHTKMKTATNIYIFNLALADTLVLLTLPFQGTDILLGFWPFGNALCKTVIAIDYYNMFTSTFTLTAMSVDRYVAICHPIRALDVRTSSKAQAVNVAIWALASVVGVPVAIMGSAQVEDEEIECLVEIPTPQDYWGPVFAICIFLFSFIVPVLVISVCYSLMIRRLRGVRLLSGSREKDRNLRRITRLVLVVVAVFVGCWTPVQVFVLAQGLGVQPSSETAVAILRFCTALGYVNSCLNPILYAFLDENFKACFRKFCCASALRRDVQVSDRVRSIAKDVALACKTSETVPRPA
T2 sequence (P41145 whole entry): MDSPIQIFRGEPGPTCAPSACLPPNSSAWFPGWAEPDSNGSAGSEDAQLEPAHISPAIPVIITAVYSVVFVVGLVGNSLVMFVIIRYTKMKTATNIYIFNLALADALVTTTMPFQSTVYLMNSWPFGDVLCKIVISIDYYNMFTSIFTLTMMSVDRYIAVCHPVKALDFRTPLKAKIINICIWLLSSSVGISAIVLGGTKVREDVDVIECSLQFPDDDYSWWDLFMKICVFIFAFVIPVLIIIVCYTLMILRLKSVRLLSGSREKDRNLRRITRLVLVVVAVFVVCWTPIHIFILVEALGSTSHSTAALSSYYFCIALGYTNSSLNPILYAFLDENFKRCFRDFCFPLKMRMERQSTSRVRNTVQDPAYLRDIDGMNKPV
T8 sequence (P25103 whole entry): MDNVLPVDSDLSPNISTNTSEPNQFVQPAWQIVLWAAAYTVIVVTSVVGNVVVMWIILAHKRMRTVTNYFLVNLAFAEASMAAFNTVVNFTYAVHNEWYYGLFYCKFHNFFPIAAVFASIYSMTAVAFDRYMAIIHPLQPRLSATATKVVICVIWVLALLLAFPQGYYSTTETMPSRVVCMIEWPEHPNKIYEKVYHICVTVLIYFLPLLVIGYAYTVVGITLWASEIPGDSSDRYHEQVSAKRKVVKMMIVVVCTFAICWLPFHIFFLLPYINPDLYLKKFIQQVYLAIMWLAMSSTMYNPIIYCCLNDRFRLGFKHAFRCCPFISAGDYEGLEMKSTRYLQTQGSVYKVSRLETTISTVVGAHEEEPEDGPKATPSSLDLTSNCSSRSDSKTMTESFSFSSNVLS
T1 sequence (P41143 whole entry): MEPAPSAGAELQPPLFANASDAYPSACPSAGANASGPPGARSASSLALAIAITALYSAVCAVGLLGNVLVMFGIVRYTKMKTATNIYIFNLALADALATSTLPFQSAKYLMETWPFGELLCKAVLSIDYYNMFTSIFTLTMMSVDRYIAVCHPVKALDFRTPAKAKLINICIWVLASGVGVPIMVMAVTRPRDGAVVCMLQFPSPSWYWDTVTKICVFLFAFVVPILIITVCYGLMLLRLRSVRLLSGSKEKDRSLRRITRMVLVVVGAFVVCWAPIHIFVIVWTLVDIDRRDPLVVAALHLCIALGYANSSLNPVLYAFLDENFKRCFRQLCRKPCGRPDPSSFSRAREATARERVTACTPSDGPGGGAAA
T7 sequence (P35372 whole entry): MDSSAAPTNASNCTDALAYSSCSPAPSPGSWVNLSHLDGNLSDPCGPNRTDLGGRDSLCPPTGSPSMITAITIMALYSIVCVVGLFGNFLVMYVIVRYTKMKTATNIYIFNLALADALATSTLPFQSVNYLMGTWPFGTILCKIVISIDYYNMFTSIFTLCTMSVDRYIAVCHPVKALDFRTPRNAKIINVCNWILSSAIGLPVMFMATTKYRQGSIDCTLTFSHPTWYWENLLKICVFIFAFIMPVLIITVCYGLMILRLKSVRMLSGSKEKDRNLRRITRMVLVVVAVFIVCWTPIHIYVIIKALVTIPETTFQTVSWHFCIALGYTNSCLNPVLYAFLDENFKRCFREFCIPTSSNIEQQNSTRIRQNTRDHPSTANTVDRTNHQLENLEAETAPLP
T4 sequence (P32245 whole entry): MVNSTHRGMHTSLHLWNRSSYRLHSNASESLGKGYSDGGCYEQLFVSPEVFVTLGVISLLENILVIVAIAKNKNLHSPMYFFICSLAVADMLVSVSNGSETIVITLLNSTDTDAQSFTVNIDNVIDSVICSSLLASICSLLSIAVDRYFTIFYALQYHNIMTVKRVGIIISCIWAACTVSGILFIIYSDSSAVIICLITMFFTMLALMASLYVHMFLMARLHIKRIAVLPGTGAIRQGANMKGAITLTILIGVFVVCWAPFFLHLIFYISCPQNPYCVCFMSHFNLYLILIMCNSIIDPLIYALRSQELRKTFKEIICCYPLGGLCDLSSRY
T3 sequence (P41968 whole entry): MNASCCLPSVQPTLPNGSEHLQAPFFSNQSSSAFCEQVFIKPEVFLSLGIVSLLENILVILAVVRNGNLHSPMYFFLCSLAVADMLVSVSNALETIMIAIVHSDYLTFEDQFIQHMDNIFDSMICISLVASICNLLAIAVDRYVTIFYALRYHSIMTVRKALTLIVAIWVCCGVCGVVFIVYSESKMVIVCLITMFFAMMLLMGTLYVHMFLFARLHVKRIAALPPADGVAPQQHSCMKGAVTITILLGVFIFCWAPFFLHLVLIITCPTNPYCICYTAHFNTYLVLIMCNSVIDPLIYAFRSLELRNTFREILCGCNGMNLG
T6 sequence (Q99705 whole entry): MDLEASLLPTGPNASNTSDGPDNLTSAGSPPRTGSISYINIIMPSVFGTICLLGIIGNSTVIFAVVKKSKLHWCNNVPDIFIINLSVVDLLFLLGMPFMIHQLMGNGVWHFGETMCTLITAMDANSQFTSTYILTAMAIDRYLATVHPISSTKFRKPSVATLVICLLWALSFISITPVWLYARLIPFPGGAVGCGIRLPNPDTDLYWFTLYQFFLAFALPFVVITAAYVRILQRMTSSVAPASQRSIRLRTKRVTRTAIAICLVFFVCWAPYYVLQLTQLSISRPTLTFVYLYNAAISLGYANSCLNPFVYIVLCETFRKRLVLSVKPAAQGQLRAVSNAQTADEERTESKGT

CO[C@H]1[C@H](O)[C@@H](COCc2ccc3ccccc3c2)OC(OCc2ccc(Cl)cc2)[C@@H]1NC(=O)C1CCCN(C(=N)N)C1 (stereo partly shown) [compound 353]
A1: inhibition of radioligand binding, human δ-opioid (DOP) (Human δ-opioid (DOP)): − (“−” indicates less than 50% inhibition at 10 μM) | A2: inhibition of radioligand binding, human κ-opioid (KOP) (Human κ-Opioid (KOP)): − (“−” indicates less than 50% inhibition at 10 μM) | A3: inhibition of radioligand binding, human melanocortin (MC3) (Human Melanocortin (MC3)): − (“−” indicates less than 50% inhibition at 10 μM) | A4: inhibition of radioligand binding, human melanocortin (MC4) (Human Melanocortin (MC4)): − (“−” indicates less than 50% inhibition at 10 μM) | A5: inhibition of radioligand binding, human melanocortin (MC5) (Human melanocortin (MC5)): − (“−” indicates less than 50% inhibition at 10 μM) | A6: inhibition of radioligand binding, human melanin-concentrating hormone (MCH1) ([1]; [125I]-S36057): − (“−” indicates less than 50% inhibition at 10 μM) | A7: inhibition of radioligand binding, human μ-opioid (MOP) (Human μ-opioid (MOP)): − (“−” indicates less than 50% inhibition at 10 μM) | A8: inhibition of radioligand binding, human neurokinin (NK1) (Human neurokinin (NK1)): + (“+” indicates greater than 50% inhibition at 10 μM) | A9: inhibition of radioligand binding, human neuropeptide Y (NPY-Y1) [2]: − (“−” indicates less than 50% inhibition at 10 μM) | A10: inhibition of radioligand binding, human opioid (ORL1) (Human opioid (ORL1)): − (“−” indicates less than 50% inhibition at 10 μM) | A11: inhibition of radioligand binding, mouse urotensin (mUR2) (Mouse urotensin (mUR2)): − (“−” indicates less than 50% inhibition at 10 μM)

COCC1OC(OCc2ccc(Cl)cc2)C(NC(=O)CCNC(=N)N)C(OCc2ccccc2)C1O (stereo not shown) [compound 196]
A1: inhibition of radioligand binding (Human δ-opioid (DOP); FlashPlate): + (“+” indicates greater than 50% inhibition at 10 μM) | A2: inhibition of radioligand binding (Human κ-Opioid (KOP); filtration): − (“−” indicates less than 50% inhibition at 10 μM) | A3: inhibition of radioligand binding (Human Melanocortin (MC3); FlashPlate): − (“−” indicates less than 50% inhibition at 10 μM) | A4: inhibition of radioligand binding (Human Melanocortin (MC4); FlashPlate): − (“−” indicates less than 50% inhibition at 10 μM) | A5: inhibition of radioligand binding (Human melanocortin (MC5); FlashPlate): − (“−” indicates less than 50% inhibition at 10 μM) | A6: inhibition of radioligand binding ([1]; [125I]-S36057, FlashPlate): − (“−” indicates less than 50% inhibition at 10 μM) | A7: inhibition of radioligand binding (Human μ-opioid (MOP); FlashPlate): − (“−” indicates less than 50% inhibition at 10 μM) | A8: inhibition of radioligand binding (Human neurokinin (NK1); filtration): + (“+” indicates greater than 50% inhibition at 10 μM) | A9: inhibition of radioligand binding ([2]; FlashPlate): − (“−” indicates less than 50% inhibition at 10 μM) | A10: inhibition of radioligand binding (Human opioid (ORL1); FlashPlate): − (“−” indicates less than 50% inhibition at 10 μM) | A11: inhibition of radioligand binding (Mouse urotensin (mUR2); FlashPlate): − (“−” indicates less than 50% inhibition at 10 μM)
